Test results: ChEMBL document CHEMBL4052612, “Isolation and Identification of the Novel Tubulin Polymerization Inhibitor Bifidenone” (J Nat Prod, 2017)
Calls of active or inactive are those of the source. The calls are words filed in the database; no cut-off is given here.

Assays:
Sus scrofa [1] = species: Sus scrofa; assay: Displacement of vincristine from vinca alkaloid binding site of pig brain tubulin up to 100 uM by LC-MS analysis
SF-295 = assay: Antiproliferative activity against human SF295 cells after 72 hrs by CellTiter96 AQueous nonradioactive cell proliferation assay; type: functional, cell-based; conditions: SF-295, 72 h
RAW264.7 = assay: Antiproliferative activity against mouse RAW264.7 cells after 18 hrs by CellTiter96 AQueous nonradioactive cell proliferation assay; type: cell-based; conditions: RAW264.7, 18 h
NCI-H460 [2] = assay: Cell cycle arrest in human NCI-H460 cells assessed as accumulation at G2/M phase at 1.5 uM measured after 6 to 24 hrs in the presence of RNase A by propidium iodide staining-based flow cytometry analysis; type: functional
SK-MEL-2 = assay: Antiproliferative activity against human SK-MEL-2 cells after 72 hrs by CellTiter96 AQueous nonradioactive cell proliferation assay; type: functional, cell-based; conditions: SK-MEL-2, 72 h
Malme-3M = assay: Antiproliferative activity against human MALME-3M cells after 48 hrs by SRB assay; type: functional, cell-based
UACC-62 = assay: Antiproliferative activity against human UACC62 cells after 72 hrs by CellTiter96 AQueous nonradioactive cell proliferation assay; type: functional, cell-based; conditions: UACC-62, 72 h
NCI-H460 [3] = assay: Antiproliferative activity against human NCI-H460 cells after 72 hrs by CellTiter96 AQueous nonradioactive cell proliferation assay; type: functional, cell-based; conditions: NCI-H460, 72 h
HCC 2998 = assay: Antiproliferative activity against human HCC2998 cells after 48 hrs by SRB assay; type: functional, cell-based; conditions: HCC 2998, 48 h
ACHN = assay: Antiproliferative activity against human ACHN cells after 72 hrs by CellTiter96 AQueous nonradioactive cell proliferation assay; type: functional, cell-based
Sus scrofa [4] = species: Sus scrofa; assay: Displacement of colchicine from colchicine-binding site of pig brain tubulin up to 100 uM by LC-MS analysis
NCI-H460 [5] = assay: Induction of necrosis in human NCI-H460 cells upto 100 uM assessed as increase in LDH levels after 24 hrs by CytoTox 96 nonradioactive cytotoxicity assay; type: functional, cell-based
SR = assay: Antiproliferative activity against human SR cells after 48 hrs by SRB assay; type: functional, cell-based
PC-3 = assay: Antiproliferative activity against human PC3 cells after 72 hrs by CellTiter96 AQueous nonradioactive cell proliferation assay; type: functional, cell-based; conditions: PC-3, 72 h
NCI/ADR-RES = assay: Antiproliferative activity against human NCI-ADR-RES cells after 48 hrs by SRB assay; type: functional, cell-based
MDA-MB-435 = assay: Antiproliferative activity against human MDA-MB-435 cells after SRB assay; type: functional, cell-based
M14 = assay: Antiproliferative activity against human M14 cells after 72 hrs by CellTiter96 AQueous nonradioactive cell proliferation assay; type: functional, cell-based; conditions: M14, 72 h
[6] = Antiproliferative activity against human NCI60 cells after 48 hrs by SRB assay; type: functional, cell-based; conditions: NCI60, 48 h
Sus scrofa [7] = species: Sus scrofa; assay: Inhibition of pig brain tubulin polymerization measured every 1 min for 60 mins
A-375 = assay: Antiproliferative activity against human A375 cells after 72 hrs by CellTiter96 AQueous nonradioactive cell proliferation assay; type: functional, cell-based; conditions: A-375, 72 h
NCI-H460 [8] = assay: Induction of apoptosis in human NCI-H460 cells upto 100 uM assessed as increase in caspase3/7 activity after 24 hrs by Caspase-Glo 3/7 assay relative to control; type: functional

IC50 (SK-MEL-2) [µM]	IC50 (NCI-H460 [3]) [µM]	IC50 (ACHN) [µM]	IC50 (PC-3) [µM]	IC50 (A-375) [µM]	SMILES	IC50 (SF-295) [µM]	IC50 (RAW264.7) [µM]	IC50 (UACC-62) [µM]	IC50 (NCI/ADR-RES) [µM]	IC50 (M14) [µM]	also measured
0.095	0.26	0.36	0.49	0.075	C=CC[C@H]1C[C@]2([C@@H](C)Cc3ccc(OC)c(OC)c3)OCOC2=CC1=O	0.25	> 5	0.044	0.17	0.064	inhibition (Sus scrofa [1]): inactive; Activity (NCI-H460 [2]): Active; IC50 (Malme-3M): < 0.1 µM; IC50 (HCC 2998): 1.41 µM; inhibition (Sus scrofa [4]): Active; Activity (NCI-H460 [5]): Active; IC50 (SR): < 0.1 µM; IC50 (MDA-MB-435): < 0.1 µM; IC50 [6]: 0.27 µM; inhibition (Sus scrofa [7]): Dose-dependent effect; fold change (FC) (NCI-H460 [8]): 2.5
0.009	0.01	0.066	0.004	0.01	CC(=O)O[C@H]1C(=O)[C@@]2(C)[C@H]([C@H](OC(=O)c3ccccc3)[C@]3(O)C[C@H](OC(=O)[C@H](O)[C@@H](NC(=O)c4ccccc4)c4ccccc4)C(C)=C1C3(C)C)[C@]1(OC(C)=O)CO[C@@H]1C[C@@H]2O [PACLITAXEL]	0.056	> 5	0.006	> 10	0.007	–
